Data taken from PubChem BioAssay AID651569 (Sanford-Burnham Center for Chemical Genomics, 2012).
Active and inactive are the calls of the source. How the calls were made is not given here.

Tested on: luminescent cytotoxicity (cell viability) counter-screen
Test: cytotoxicity of Gli-SUFU antagonist hits, dose response, cytotoxicity control for Gli-SUFU antagonist project, cell-based, luminescence, uHTS hits (AID 651569);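 further: compound exposure lasted overnight before the viability readout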

Structure (SMILES)	IC50
CCOP(=O)(CCP(=O)(OCC)OCC)OCC.C[CH2][Sn]([Cl])([Cl])[CH2]C	12.6 µM
CCn1c(/C=C/Nc2ccccc2)[n+](CC)c2ccc(Cl)cc21	> 20 µM (inactive)
CCc1nc(N)nc(N)c1-c1ccc(N(C)Cc2ccccc2)c([N+](=O)[O-])c1	18.4 µM
COc1ccc(Cn2c(-c3ccc(Cl)cc3)c[n+]3ccccc23)cc1	> 20 µM (inactive)
CCn1c(=O)cc(SCC(=O)N2CCN(C3CCCCC3)CC2)c2ccccc21	> 20 µM (inactive)
CC1CN(S(=O)(=O)c2ccc(C(=O)Nc3nc(-c4cc5ccccc5o4)cs3)cc2)CC(C)O1 (configuration not stated)	> 20 µM (inactive)
O=c1c2ccccc2sc2c(CO)ccc(NCCN3CCCCC3)c12	19.1 µM
Cc1ccc(-c2c[n+](Cc3ccc(Cl)c(Cl)c3)c3n2CCC3)cc1	13.7 µM
CNc1nc(NCc2ccccc2)c2ccccc2n1	> 20 µM (inactive)
CCNc1nc(CN2CCCCC2)nc2scc(-c3ccccc3)c12	15.6 µM
COc1ccccc1CN(Cc1nc2ccccc2c(=O)[nH]1)S(=O)(=O)c1ccc(C)cc1	> 20 µM (inactive)
FC(F)Oc1ccc(-c2c[n+]3c(n2-c2ccccc2)CCCCC3)cc1	> 20 µM (inactive)
CC1CCC(NC(=O)c2cccc(S(=O)(=O)N3CCN(c4ccccc4)CC3)c2)CC1 (configuration not stated)	> 20 µM (inactive)
Cc1ccc(O)c(NC(=O)COc2cc(C)ccc2C)c1	> 20 µM (inactive)
O=C(c1cnc(N2CCN(c3ccccn3)CC2)c2ccccc12)N1CCN(c2cccc(Cl)c2)CC1	> 20 µM (inactive)
C(#Cc1ccccc1)C[N+]1(CC#Cc2ccccc2)CCCC1	> 20 µM (inactive)
CCCCOCCCNc1ncnc2c1[nH]c1ccccc12	> 20 µM (inactive)
COc1ccc(-c2c(C#N)c(N)nc3c2CCc2ccccc2-3)cc1OC	8.1 µM
Cc1ccc(Cl)cc1N1CCN(C(=O)CSc2nnc3n2C(C)(C)Cc2ccccc2-3)CC1	> 20 µM (inactive)
CCOc1ccc(OCc2ccc(C(=O)NN=Cc3ccc[nH]3)cc2)cc1	19.3 µM
COc1cc(C(=O)NC2CCN(C)CC2)ccc1Nc1ncc2c(n1)N(C1CCCCC1)CCC(=O)N2C	15.7 µM
O=C(N[C@@H]1C/C=C\C[C@H](CC(=O)N(CCO)Cc2ccccc2)C(=O)N[C@@H](Cc2c[nH]c3ccccc23)COC1=O)OCC1c2ccccc2-c2ccccc21	> 20 µM (inactive)
COc1ccc(NS(=O)(=O)c2ccc(N3CCOCC3)c(N)c2)cc1	> 20 µM (inactive)

Structure (SMILES)	IC50
Fc1ccc(-n2nnnc2-c2cnc(-c3cccs3)nc2C(F)(F)F)cc1	17 µM
CC(=O)c1c(C)[nH]c(C(=O)OCC(=O)Nc2ccc(C)cc2[N+](=O)[O-])c1C	18.9 µM
C=CCn1c(O)c(N=NC(=S)Nc2cccc(C)c2)c2ccccc21	> 20 µM (inactive)
C[C@@H]1COC(=O)[C@H](NC(=O)OCC2c3ccccc3-c3ccccc32)C/C=C\C[C@@H](CC(=O)N[C@@H](CO)Cc2ccccc2)C(=O)N1	> 20 µM (inactive)
CCOC(=O)c1c(NC(=O)COc2ncnc3ccccc23)sc(C(C)=O)c1C	> 20 µM (inactive)
Cc1sc2ncnc(NCC3COc4ccccc4O3)c2c1C (configuration not stated)	> 20 µM (inactive)
CC(=O)c1cn(CCOc2ccccc2C)c2ccccc12	> 20 µM (inactive)
O=C(c1cc2nc(-c3ccc(F)cc3)cc(C(F)(F)F)n2n1)N1CCCCC1c1cccnc1 (configuration not stated)	> 20 µM (inactive)
COc1ccc(-c2c[n+](CC(=O)c3ccccc3)c3n2CCCCC3)cc1	> 20 µM (inactive)
CCOc1ccc(-n2c(-c3ccc(Cl)cc3)c[n+]3c2SCC3)cc1	19 µM
CN(CCOc1ccc(Cl)cc1)C(=O)c1cccc(S(=O)(=O)N2CCN(c3ccc(F)cc3)CC2)c1	> 20 µM (inactive)
CCCCCCn1c(=O)c(C(=O)Nc2cnccn2)c(O)c2ccccc21	> 20 µM (inactive)
O=C(N[C@H]1C/C=C\C[C@@H](CC(=O)N(CCO)Cc2ccccc2)C(=O)NC[C@H](c2ccccc2)OC1=O)OCC1c2ccccc2-c2ccccc21	> 20 µM (inactive)
CCCCCn1c(=N)n(CC(O)COc2ccccc2OC)c2ccccc21 (configuration not stated)	> 20 µM (inactive)
O=S(=O)(c1ccc2c(c1)nc(COc1ccc(Cl)cc1)n2CC1CCCO1)N1CCOCC1 (configuration not stated)	> 20 µM (inactive)
CCCc1nc(SCC(=O)Nc2nnc(CC)s2)c2c(=O)n(C)c(=O)n(C)c2n1	> 20 µM (inactive)
O=C(Nc1cc(N2CCCCC2)ncn1)c1ccccc1	> 20 µM (inactive)
CCOC(=O)c1ccc(NC(=O)Cn2cnc3cc(C)c(C)cc32)cc1	> 20 µM (inactive)
COc1ccc(C(=O)C[n+]2cc(-c3ccc(OC)cc3)n3c2CCCC3)cc1	> 20 µM (inactive)
S=C(Nc1ccccc1)N1CCC(Cc2ccccc2)CC1	> 20 µM (inactive)
COCCn1c(CN2CCC(Cc3ccccc3)CC2)nc2c1c(=O)n(C)c(=O)n2C	> 20 µM (inactive)
Cc1c(C(C)C)c(=O)n(-c2ccc(S(=O)(=O)NCc3ccccc3)cc2)n1C	> 20 µM (inactive)
COc1ccc(CCNc2ncnc3c2oc2ccccc23)cc1OC	> 20 µM (inactive)

Structure (SMILES)	IC50
CC(=O)c1cn(Cc2ccccc2F)c2ccccc12	> 20 µM (inactive)
CCCCCCCOc1ccc(OC(=O)c2ccncc2)cc1	> 20 µM (inactive)
C=CCNc1nc2c(c(=O)n(C)c(=O)n2C)n1Cc1ccc(F)cc1	> 20 µM (inactive)
CCOC(CN=c1nc(N(C)C)ss1)OCC	18.6 µM
CN1/C(=C\C=Nc2ccccc2)C(C)(C)c2ccccc21	> 20 µM (inactive)
Cc1cc(C)nc(/N=C(\N)Nc2ccccc2-c2ccccc2)n1	18.4 µM
CCc1c(C)nc2ncnn2c1N1CCN(S(=O)(=O)c2ccc(OC)cc2)CC1	> 20 µM (inactive)
CC(C)n1c(-c2ccco2)csc1=Nc1cccnc1	> 20 µM (inactive)
CCCn1c(SCC(=O)Nc2nc(-c3ccc(OC)cc3)cs2)nc2c1c(=O)n(C)c(=O)n2C	> 20 µM (inactive)
CC1C(OC(=O)CCC(=O)NC(C)(C)CO)O[C@H]2OC3(C)CC[C@H]4[C@H](C)CCC1C24OO3 (some centres not stated)	> 20 µM (inactive)
Cc1nnsc1C(=O)Nc1ccc(S(=O)(=O)N2CCC(C)CC2)cc1	> 20 µM (inactive)
NC(=O)c1ccccc1OCC(=O)N1CCC(Cc2ccccc2)CC1	> 20 µM (inactive)
Cc1ccc(C(=O)N2CCN3C(=O)c4ccccc4C23c2ccc(Cl)cc2)cc1 (configuration not stated)	> 20 µM (inactive)
CCn1c(/C=C/Nc2ccccc2)[n+](CC)c2cc(Cl)c(Cl)cc21	9.98 µM
COc1ccc(-n2c(-c3ccc(Cl)cc3)c[n+]3c2CCc2ccccc2-3)cc1	> 20 µM (inactive)
O=C(Cn1cc(C(=O)c2ccco2)c2ccccc21)Nc1ccccc1F	> 20 µM (inactive)
FC(F)(F)c1ccc(N2CCN(c3cc(-c4ccccc4)nc4ncnn34)CC2)nc1	> 20 µM (inactive)
O=C(N[C@@H]1C/C=C\C[C@H](CC(=O)N(CCO)Cc2ccccc2)C(=O)NC[C@@H](c2ccccc2)OC1=O)OCC1c2ccccc2-c2ccccc21	> 20 µM (inactive)
CC(C)(C)C1CCC(OC(=O)C[N+]2(C)CCCCC2)CC1 (configuration not stated)	> 20 µM (inactive)
Cc1cc(NC(=O)CSc2nc3c([nH]c4ccccc43)c(=O)n2-c2ccccc2F)no1	> 20 µM (inactive)
CCCC(C)C(=O)Nc1nc(C)c(-c2csc(Nc3ccc(Cl)cc3)n2)s1 (configuration not stated)	> 20 µM (inactive)
